From ChEMBL document CHEMBL1201862, “PubChem BioAssay data set” (2004)
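Briefly, cells in 96-well plates were exposed to five compound concentrations for 48 h, and endpoints were estimated by linear interpolation. At the GI50, growth is halved.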 Calls of active or inactive are those of the source. Rule as the data show it: active = GI50 up to about 1.1 µM and inactive = higher. Where a SMILES comes first, the peptide text is derived from it. [ ]: non-standard residue; d: D form. The star is where a group is joined. Phe(4-NO2) = N[CH](Cc1ccc([N+](=O)[O-])cc1)C(=O)O; Boc = CC(C)(C)OC(=O)*; OBn = c1ccc(CO*)cc1

What was measured:
Assay in all cases: DTP human tumour cell line panel, 48 h
NCI-H23 = test system: NCI-H23
HOP-62 = test system: HOP-62
MDA-N = test system: MDA-N
A549 = test system: A549
UO-31 = test system: UO-31
SK-MEL-28 = test system: SK-MEL-28
BT-549 = test system: BT-549
SN12C = test system: SN12C
HCT-116 = test system: HCT-116
U-251 = test system: U-251
IGROV-1 = test system: IGROV-1
OVCAR-8 = test system: OVCAR-8
LOX IMVI = test system: LOX IMVI
A498 = test system: A498
NCI/ADR-RES = test system: NCI/ADR-RES
SNB-75 = test system: SNB-75
NCI-H522 = test system: NCI-H522
SNB-19 = test system: SNB-19
TK-10 = test system: TK-10
CCRF-CEM = test system: CCRF-CEM

Measured: GI50

CCOC(=O)c1oc2ccc([N+](=O)[O-])c3c2c1CCC3
inactive: NCI-H23 61.4 µM | HOP-62 24.3 µM | MDA-N > 100 µM | A549 > 100 µM | UO-31 66.7 µM | SK-MEL-28 > 82.4 µM | BT-549 46.5 µM | SN12C > 84.3 µM | HCT-116 51.1 µM | U-251 29.9 µM | IGROV-1 57.9 µM | OVCAR-8 82.4 µM | LOX IMVI 66.5 µM | A498 32.7 µM | NCI/ADR-RES 64.9 µM | SNB-75 14 µM | NCI-H522 35.2 µM | SNB-19 34.7 µM | TK-10 47.6 µM | CCRF-CEM > 95.1 µM

CCOC(=O)[C@@H]1C2C(=C[C@H]3[C@H]1C(=O)N1CCCC[C@H]31)CCCN2C(=O)OCc1ccccc1 (stereo not given in full)
inactive: NCI-H23 29.3 µM | HOP-62 42.5 µM | MDA-N 35.7 µM | A549 36.1 µM | UO-31 32.8 µM | SK-MEL-28 59.7 µM | BT-549 24.7 µM | SN12C 47.5 µM | HCT-116 35.6 µM | U-251 43.6 µM | IGROV-1 41.3 µM | OVCAR-8 35.5 µM | LOX IMVI 33.3 µM | A498 23.6 µM | NCI/ADR-RES 26.2 µM | SNB-75 75.7 µM | NCI-H522 18.5 µM | SNB-19 > 100 µM | TK-10 75.9 µM | CCRF-CEM 22.3 µM

Clc1ccc(-c2nn3c(CCCCCCCCc4nnc5sc(-c6ccc(Cl)cc6)nn45)nnc3s2)cc1
inactive: NCI-H23 27.1 µM | HOP-62 26.4 µM | MDA-N 18.2 µM | A549 13.2 µM | UO-31 12.6 µM | SK-MEL-28 23.6 µM | BT-549 24.8 µM | SN12C 17.5 µM | HCT-116 15.9 µM | U-251 15.9 µM | IGROV-1 22.8 µM | OVCAR-8 18.7 µM | LOX IMVI 7.24 µM | A498 24.8 µM | NCI/ADR-RES 21 µM | SNB-75 19.9 µM | NCI-H522 7.91 µM | SNB-19 20.6 µM | TK-10 23.4 µM | CCRF-CEM 11.8 µM

CC/C(=N/O)c1ccc(Br)s1
inactive: NCI-H23 > 100 µM | HOP-62 > 100 µM | MDA-N > 100 µM | A549 > 100 µM | UO-31 58.6 µM | SK-MEL-28 > 100 µM | BT-549 > 100 µM | SN12C > 100 µM | HCT-116 > 100 µM | U-251 > 100 µM | IGROV-1 55.6 µM | OVCAR-8 > 100 µM | LOX IMVI 51.9 µM | A498 > 100 µM | NCI/ADR-RES > 100 µM | SNB-75 67.8 µM | NCI-H522 > 100 µM | SNB-19 66.1 µM | TK-10 > 100 µM | CCRF-CEM 41.1 µM

CSc1nc(SC)c2c(C)c(Br)[nH]c2n1
inactive: NCI-H23 > 100 µM | HOP-62 > 100 µM | MDA-N > 100 µM | A549 > 100 µM | UO-31 > 100 µM | SK-MEL-28 > 100 µM | BT-549 > 100 µM | SN12C > 100 µM | HCT-116 > 100 µM | U-251 > 100 µM | IGROV-1 > 100 µM | OVCAR-8 > 100 µM | LOX IMVI > 100 µM | A498 > 100 µM | NCI/ADR-RES > 100 µM | SNB-75 > 100 µM | NCI-H522 > 100 µM | SNB-19 > 100 µM | TK-10 > 100 µM | CCRF-CEM > 100 µM

COc1cc(C2SCC(=O)N2c2ccc(Cl)c(Cl)c2)cc(OC)c1OC (stereo not given)
inactive: NCI-H23 69.5 µM | HOP-62 24.2 µM | MDA-N 13 µM | A549 > 78.7 µM | UO-31 18.9 µM | SK-MEL-28 > 50.9 µM | BT-549 44.7 µM | SN12C > 54.5 µM | HCT-116 25.5 µM | U-251 47.3 µM | IGROV-1 > 82.6 µM | OVCAR-8 60.5 µM | LOX IMVI 17.7 µM | A498 > 100 µM | NCI/ADR-RES 37.2 µM | SNB-75 76.6 µM | NCI-H522 22.1 µM | SNB-19 > 100 µM | TK-10 > 100 µM | CCRF-CEM 14.8 µM

NC(=O)SCC(=O)Nc1ccc2cccc3c2c1CC3
inactive: NCI-H23 23.7 µM | HOP-62 52.1 µM | MDA-N 21.8 µM | A549 > 100 µM | UO-31 41.2 µM | SK-MEL-28 > 10 µM | BT-549 16.2 µM | SN12C 21.5 µM | HCT-116 15.5 µM | U-251 5.33 µM | IGROV-1 > 100 µM | OVCAR-8 63.4 µM | LOX IMVI 6.75 µM | A498 91 µM | NCI/ADR-RES 42.6 µM | SNB-75 96.6 µM | NCI-H522 > 100 µM | SNB-19 99.3 µM | TK-10 27.9 µM | CCRF-CEM 8.02 µM

COC(=O)CCC(NC(=O)OC(C)(C)C)C(=O)NC(Cc1ccc([N+](=O)[O-])cc1)C(=O)NCC(=O)OCc1ccccc1 (stereo not given) (Boc-Glu(OMe)-[Phe(4-NO2)]-Gly-OBn; configuration not given here)
inactive: NCI-H23 > 78.9 µM | HOP-62 27.8 µM | MDA-N > 100 µM | A549 > 100 µM | UO-31 > 100 µM | SK-MEL-28 > 100 µM | BT-549 20.4 µM | SN12C > 100 µM | HCT-116 > 100 µM | U-251 55.3 µM | IGROV-1 > 100 µM | OVCAR-8 46.7 µM | LOX IMVI > 48.2 µM | A498 > 100 µM | NCI/ADR-RES > 80.7 µM | SNB-75 18.6 µM | NCI-H522 > 100 µM | SNB-19 > 55.7 µM | TK-10 > 100 µM | CCRF-CEM 99.3 µM
